The test system of assay [1] is HFF-1 human fibroblast cell line. Kind of assay: Collagen-1 ELISA in HFF-1 dermal fibroblasts. Format: cell-based. The following applies: peptide 2 uM, 72 hour incubation. On the procedure: Immodulin peptides have potential untility in the field of cosmetics. HFF-1 human fibroblast cell line was obtained from the American Type Culture Collection (ATCC). Cells were grown in a T-75 flask in DMEM Medium containing 10% fetal bovine serum and penicillin-streptomycin at 37° C. in a humidified, 5% CO2 incubator. Cells (100 µl, 2,000 cells/well) were plated in a 96-well plate and incubated overnight at 37° C. in a humidified, 5% CO2 incubator. Next day, 10 µl/well of compounds were added (quadruplicate wells). After 72 hour incubation with the compound, supernatants were collected for Collagen-1 ELISA assay and cell viability was measured in a luminometer after the addition of 100 IL/well CellTiterGlo reagent (Promega Inc, Madison, WI) as recommended by the manufacturer. Collagen stimulating activity of immodulin peptides in HFF-1 dermal fibroblasts: Peptides were added to cells at 2 uM. COL1 immunoreactivity was measured in the supernatants of cultured cells by ELISA using a rabbit monoclonal anti-COL1 primary antibody (Abcam, Cambridge, MA). Control (buffer) value of immunoreactivity was set to 100.
A general note: In an ELISA, binding on a coated surface is turned into a signal by an enzyme label.

Assay [2] relates to rat scald-endotoxemia model. Kind of assay: Experiment 5B rat scald-endotoxemia model. The assay is classed as in vivo, Sprague Dawley rats. The method, then: Experiment 5B. This study explores the effect of immX extensions on sV-nephrilin (SEQ ID NO:31) vs V-nephrilin, as well as in a longer peptide also containing the immX extension (Traumatin-3N1A: SEQ ID NO:35) on in vivo efficacy in a rat scald-endotoxemia model. Animals were treated with peptides using a widely used protocol previously described (see, for example, U.S. Pat. No. 10,369,191). Adult Sprague Dawley rats of both sexes (250-300 gm, Charles River Laboratories, Wilmington, MA, USA) were injected with peptide plus equimolar ferric iron once daily by subcutaneous bolus injection, days 1-7; Treatment group sizes were (n=6): group S=sham-treated; group B=burn+vehicle; group V=burn+1 mg/kg V-nephrilin (V); group sV=burn+1 mg/kg sV-nephrilin (immX3N1sV); group T=burn+1 mg/kg Traumatin-3N1A. The first dose was administered after completion of the scald procedure. Injection volume was 400 uL. Control animals received the same volume of vehicle. On Day 8, animals received a single intraperitoneal injection of 2.5 mg/kg lipopolysaccharide (LPS; Sigma Cat #L-2880) and animals were then monitored by oximeter (MouseOx, Starr Life Sciences) for 4 hours, when respiratory distress (breath distension*breaths/min) was assessed relative to baseline. This was followed by sacrifice and tissue collection as in the published protocol, except that bronchoalveolar lavage (BAL) was collected and cells were recovered from BAL by centrifugation. These cells were stained with fluorescently-labeled antibodies for flow cytometry in order to ascertain granulocyte counts, as shown below. Results of the peptide comparison are presented in the table below. *p<0.05 vs “B” control. #p<0.05 vs “V” group.

[3] abbreviates: Day 1, burn + 1 mg/kg peptide plus equimolar ferric iron, subcutaneous once daily.
The mark [4] stands for this setting: Day 8, after LPS, burn + 1 mg/kg peptide days 1-7.

Marks after values point to notes of the source that are not given here. Ends that are not written are not given here. Peptide text beside a SMILES is read from it. * marks the point of attachment. Pentanoyl(2-Pr) = CCCC(CCC)C(=O)*; Decanoyl = CCCCCCCCCC(=O)*

As to `CCCCCCCCCC(=O)N[C@@H](CCCCN)C(=O)N[C@@H](CCCCN)C(=O)NCC(=O)N[C@@H](Cc1ccccc1)C(=O)N[C@@H](Cc1ccc(O)cc1)C(=O)N[C@@H](CCCCN)C(=O)N[C@@H](CCCCN)C(=O)N[C@@H](CCCCN)C(=O)N[C@@H](CCC(N)=O)C(=O)N[C@@H](CS)C(=O)N[C@@H](CCCNC(=N)N)C(=O)N1CCC[C@H]1C(=O)N[C@@H](CO)C(=O)N[C@@H](CCCCN)C(=O)NCC(=O)N[C@@H](CCCNC(=N)N)C(=O)N[C@@H](CCCCN)C(=O)N[C@@H](CCCNC(=N)N)C(=O)NCC(=O)N[C@@H](Cc1ccccc1)C(=O)N[C@@H](CS)C(=O)N[C@@H](Cc1c[nH]c2ccccc12)C(=O)O` [imm3dec] (Decanoyl-KKGFYKKKQCRPSKGRKRGFCW-OH; C-terminus assumed), the “COL1 immunoreactivity in supernatants, control (buffer) set to 100” value (“COL1 immunoreactivity in supernatants” below) in assay [1] came out at 114.

With “AFNSYELGSKGFYKKKQCRPSKGRKRGFCWAVDKY [imm3K9c]”, the “COL1 immunoreactivity in supernatants” value in assay [1] is on record as 158**.

For the compound “(cin)-KKGFYKKKQCRPSKGRKRGFCW ({cinnamic acid}-KKGFYKKKQCRPSKGRKRGFCW; cysteine pairing not given here) [imm3cin, imm3 N-terminally conjugated with cinnamic acid]”, the “COL1 immunoreactivity in supernatants” value in assay [1] amounted to 106.

“(isf)-KKGFYKKKQCRPSKGRKRGFCW ({isoferulic acid}-KKGFYKKKQCRPSKGRKRGFCW; cysteine pairing not given here) [imm3isf, imm3 N-terminally conjugated with isoferulic acid]”: in assay [1], the “COL1 immunoreactivity in supernatants” value is reported as 131*.

For the compound AFNSYELGSKGFYKKKQCRPSKGRKRGFCW [imm3K9], in assay [1], the “COL1 immunoreactivity in supernatants” value is recorded as 155**.

Take “(bex)-KKGFYKKKQCRPSKGRKRGFCW (not fully specified (N-terminus); printed as (bex)-KKGFYKKKQCRPSKGRKRGFCW; cysteine pairing not given here) [imm3bex]”: the “COL1 immunoreactivity in supernatants” value in assay [1] was determined as 102.

As to “FNSYELGSLKKGFYKKKQCRPSKGRKRGFCW [imm3K8]”, the “COL1 immunoreactivity in supernatants” value in assay [1] is recorded as 98.

Regarding “AFNSYELGSKKGFYKKKQCRPSKGRKRGFCW [imm3K9.1]”, the “COL1 immunoreactivity in supernatants” value in assay [1] was 156**.

In the case of “Traumatin-3N1A: a longer peptide also containing the immX extension (SEQ ID NO:35) (RGVTEDYLRLETLVQKVVSPYLKGFYKKKQCRPSKGRKRGFCWAVD)”, in assay [2] (setting [3]), the “Plasma IL-6 (pg/ml)” value is 22.5 ± 11*^ pg/ml and the “Plasma albumin mg/ml (24 hr IR)” value is recorded as 7.6 ± 0.9* mg/ml. In assay [2] (Day 5, burn + 1 mg/kg peptide plus equimolar ferric iron, subcutaneous once daily), the “Change in body weight (Pct vs Day 1)” value is on record as −5.3 ± 3.5* Pct. The “Respiratory distress (Gp. “S” = 100)” value in assay [2] (Day 8, 4 hours after LPS, burn + 1 mg/kg peptide days 1-7) was 197 ± 39*#. The “Wet/dry lung weight (corrected for body weight)” value in assay [2] (Day 8, after LPS 2.5 mg/kg ip, burn + 1 mg/kg peptide days 1-7) is on record as 6.74 ± 0.61*. Moreover, in assay [2] (setting [4]), the “BAL fluid IL1-beta (pg/ml)” value is 45.7 ± 24*# pg/ml, the “Plasma OHDG (ng/ml)” value is 1.24 ± 0.4* ng/ml and the “Plasma creatinine (mg/dL)” value was 0.64 ± 0.2* mg/dL.

“(rhn)-KKGFYKKKQCRPSKGRKRGFCW (rhein-KKGFYKKKQCRPSKGRKRGFCW; cysteine pairing not given here) [imm3rhn, imm3 N-terminally conjugated with rhein]”: the “COL1 immunoreactivity in supernatants” value in assay [1] is recorded as 68**.

Regarding `CCCC(CCC)C(=O)N[C@@H](CCCCN)C(=O)N[C@@H](CCCCN)C(=O)NCC(=O)N[C@@H](Cc1ccccc1)C(=O)N[C@@H](Cc1ccc(O)cc1)C(=O)N[C@@H](CCCCN)C(=O)N[C@@H](CCCCN)C(=O)N[C@@H](CCCCN)C(=O)N[C@@H](CCC(N)=O)C(=O)N[C@@H](CS)C(=O)N[C@@H](CCCNC(=N)N)C(=O)N1CCC[C@H]1C(=O)N[C@@H](CO)C(=O)N[C@@H](CCCCN)C(=O)NCC(=O)N[C@@H](CCCNC(=N)N)C(=O)N[C@@H](CCCCN)C(=O)N[C@@H](CCCNC(=N)N)C(=O)NCC(=O)N[C@@H](Cc1ccccc1)C(=O)N[C@@H](CS)C(=O)N[C@@H](Cc1c[nH]c2ccccc12)C(=O)O` [imm3vlp] ({Pentanoyl(2-Pr)}-KKGFYKKKQCRPSKGRKRGFCW-OH; C-terminus assumed), the “COL1 immunoreactivity in supernatants” value in assay [1] is 157**.

These data come from patent US12410220B2, “Modulation of mammalian cell lineage by synthetic immodulins” (priority 2021, dated 2025).
